Patent publication US20020131997A1, “Method for treating hematologic disorders with water insoluble 20 (S)-camptothecin” (priority 2000, published 2002)

Key:
[1] = test system: CMML; experiment: Clinical treatment of patients with CMML with oral 9NC gelules; assay type: in vivo, human
Text: (§1) Twenty five patients with hematologic disorders were admitted for the treatment with 9NC. Among them, 9 patients had Philadelphia chromosome (Ph)-negative bcr/abl-negative CML; 8 patients had Philadelphia chromosome (Ph)-positive CML (6 in chronic phase and 2 in accelerated phase); 7 patients had CMML; and one had MDS (RAEB, refractory anemia with excess blasts). Median age of patients was 65 years, ranging from age 29 to age 77. Median white blood cell (WBC) counts was 25.2×10^9/L (range: 4.5-76×10^9/L); and median platelet count was 223×10^9/L (range: 23-1042×10^9/L). Among the patients for the treatment, 14 patients had splenomegaly, with median of 10.5 cms below costal margin (range: 1-13 cms). The 8 patients with Ph-positive CML were previously treated with interferon (IFN). Except for 5 patients, 12 other patients were also previously treated with IFN. Prior to the treatment of the present invention, the patients were off chemotherapy using other anticancer drugs for 2 weeks and recovered from toxicity of that chemotherapy.
(§2) The dosing schedule was designed as the following. The drug product, 9NC gelules, are orally administered into patients for 5 consecutive days every week. Four weeks of treatment with 9NC oral dosage defines one course of treatment. Courses are repeated every 4-6 weeks, depending on patient response and recovery of WBC and platelet counts. The total daily 9NC dose is given in 2 equal divided doses (e.g. 8 a.m. and 8 p.m.).
(§3) The dose of treatment with 9NC was designed to be modified at 5 dose levels according to myelosuppression and extramedullary toxicity. The starting dose schedule at level 0 is 2.0 mg/m^2 9NC orally daily, 5 days every week. Dose level +1 is 2.5 mg/m^2 9NC orally daily, 5 days every week. Dose level +2 is 3.0 mg/m^2 9NC orally daily, 5 days every week. Dose level −1 is 1.5 mg/m^2 9NC orally daily, 5 days every week. Dose level −2 is 1.5 mg/m^2 9NC orally daily, 4 days every week.
(§4) During the course of treatment, if there is no response to 9NC and the patient's hematologic toxicity is less than grade II, the dose level is increase by 1 level. If there is no response to 9NC and the patient's hematologic toxicity is at grade II, the dose level stays at the same level. If there is response to 9NC and the patient's hematologic toxicity is at grade III or IV, the dose level is decreased by 1 level. If there is no response to 9NC and the patient's hematologic toxicity is at grade III or IV, the patient is off the treatment with 9NC.
If low hematologic counts is due to myelosuppression, not disease, subsequent courses can be delayed until WBC >2.0×10^9/L and platelets >80×10^9/L. If low counts are attributed to persistent disease, subsequent courses are started regardless of the counts. […]

[2] = Stability of 9NC at room temperature, activity determined by HPLC; assay type: physicochemical; conditions: left at room temperature (25° C.) for 2 months
Method: 9-nitro-20(S)-camptothecin (9NC) was encapsulated in oral dosage of gelules containing 1 mg 9NC by a registered pharmacist. When 9NC is left at room temperature (25° C.) for 2 months, the loss of activity is minimal and has been estimated to be less than 5%+4.6%. Determination of activity has been done by HPLC. The gelules are preferably stored in freezers.

[3] = test system: Ph-negative bcr/abl-negative CML; experiment: Clinical treatment of patients with Ph-negative bcr/abl-negative CML with oral 9NC gelules; assay type: in vivo, human
Text: as §1, §2, §3, §4
If low hematologic counts is due to myelosuppression, not disease, subsequent courses can be delayed until WBC >2.0×10^9/L and platelets >80×10^9/L. If low counts are attributed to persistent disease, subsequent courses are started regardless of the counts.
The criteria for response to patients with CML are as follows.
Complete hematologic remission (CHR): Normalization for at least 4 weeks of the bone marrow (less than 5% blasts) and peripheral blood with WBC <10×10^9/L and no peripheral blasts, promyelocytes or myelocytes. This is in addition to disappearance of all signs and symptoms of the disease.
Partial hematologic remission (PHR): CHR except for persistence of immature cells (myelocytes, metamyelocytes), or splenomegaly <50% of pretreatment, or thrombocytosis >450×10^9/L but <50% of pretreatment.
Gelules of 9NC were orally administrated into the 9 patients with Ph-negative bcr/abl-negative CML. The starting dose was 2 mg/m^2 daily for 5 days every week. Doses were adjusted according to myelosuppression and extramedullary toxicity as described above. […] Thus, the objective response (OR) was 6/9.

[4] = test system: dogs; experiment: Toxicology studies in dogs; assay type: in vivo
[5] = test system: Ph-positive CML; experiment: Clinical treatment of patients with Ph-positive CML with oral 9NC gelules; assay type: in vivo, human; conditions: of 8 patients
Text: as §1, §2
The dose of treatment with 9NC was designed to be modified at 5 dose levels according to myelosuppression and extramedullary toxicity. The starting dose schedule at level 0 is 2.0 mg/m^2 9NC orally daily, 5 days every week. Dose level +1 is 2.5 mg/m^2 9NC orally daily, 5 days every week. Dose level +2 is 3.0 mg/m^2 9NC orally daily, 5 days every week. Dose level −1 is 1.5 mg/m^2 9NC orally daily, 5 days every week. Dose level −2 is 1.5 mg/m^2 9NC orally daily, 4 days every week. […]

[6] = test system: MDS of the RAEB type; experiment: Clinical treatment of patient with MDS (RAEB type) with oral 9NC gelules; assay type: in vivo, human; conditions: one patient, starting dose 2 mg/m^2 daily for 5 days every week
Text: as §1
as §2, with “The total daily 9NC dose is given in 2 equal divided doses (e.g. 8 a.m. and 8 p.m.).” left out

[7] = test system: mice; experiment: Toxicology studies in mice; assay type: in vivo
[8] = of 9 patients, oral, starting dose 2 mg/m^2 daily for 5 days every week

Question: Which “patients resistant to the treatment” value ([1]; of 7 patients) does the source give for `CC[C@@]1(O)C(=O)OCc2c1cc1n(c2=O)Cc2cc3c([N+](=O)[O-])cccc3nc2-1` [9NC, 9-nitro-20(S)-camptothecin] here?
Answer: Its value is 1 patient.

Question: What about the “patients with hematologic improvement in WBC or splenomegaly” value ([1]; of 7 patients) of the same compound?
Answer: The value was 4 patients.

Question: What about the “patients with partial remission” value ([1]; of 7 patients, oral, starting dose 2 mg/m^2 daily for 5 days every week) of the same compound?
Answer: Its value is 2 patients.

Question: And the “objective response (OR)” value ([1]; responders/patients)?
Answer: Its value is 6/7.

Question: What about the loss of activity [2] of the same compound?
Answer: The loss of activity was “less than 5%+4.6%”.

Question: What about the spleen response ([3]; in all 8 patients with splenomegaly) of the same compound?
Answer: The spleen response was “at least minor spleen response”.

Question: And the “patients resistant to the treatment” value [3, 8]?
Answer: The value was 2 patients.

Question: And the patients stable [3, 8]?
Answer: The patients stable was 1 patient.

Question: And the “patients with complete remission” value [3, 8]?
Answer: Its value is 2 patients.

Question: What about the “patients with partial remission” value [3, 8] of the same compound?
Answer: The value was 4 patients.

Question: What about the “objective response (OR)” value ([3]; responders/patients, oral, starting dose 2 mg/m^2 daily for 5 days every week) of the same compound?
Answer: The value was 6/9.

Question: What about the primary toxicity [4] of the same compound?
Answer: Its primary toxicity is “intestinal”.

Question: What about the tolerability ([4]; 1.0 mg/kg/day, administered for over 2 months) of the same compound?
Answer: Its tolerability is “well tolerated”.

Question: And the “patients who did not show response to the treatment” value [5]?
Answer: The value was 6 patients.

Question: What about the “patients with complete response hematologically and cytogenetically” value ([5]; oral, starting dose 2 mg/m^2 daily for 5 days every week) of the same compound?
Answer: Its value is 1 patient.

Question: What about the “patients with minor spleen response” value ([5]; patient in accelerated phase) of the same compound?
Answer: The value was 1 patient.

Question: What about the “response by MDS criteria” value [6] of the same compound?
Answer: Its value is “complete remission”.

Question: What about the primary toxicity [7] of the same compound?
Answer: Its primary toxicity is “intestinal”.
